Results as given in patent publication US20070135365A1, “Pharmaceutical composition for preventing or remedying cardiac hypertrophy and cardiovascular disease caused thereby” (priority 2003, published 2007).
Values belong to the molecule of their own block, whether it stands above or below them.

Columns and labels:
[1] = test system: fully active PKD1 (phosphorylated PKD1); assay: Immunofluorescence: intracellular distribution of fully active PKD1 in drug-treated NRC; type: cell-based, rat; conditions: for full activation (phosphorylation) of PKD1 and movement to sarcomere Z-discs: 100 μM NE (containing 2 μM propranol), 100 μM AngII or 20 nM LIF
Experimental: (§1) NRC prepared by a method similar to the method as described in (1) of Experiment 1 was moved to a glass culture plate (35 mm diameter) coated with poly-L-lysine, and was cultured over night (5% CO2 concentration, 37° C.) in DMEM without blood serum (manufactured by Nacalai Tesque). TPA was added to this to make a final concentration of 20 nM, and this was cultured a further 18 hours (5% CO2 concentration, 37° C.) (approximately 1×10^3 cells). After culturing, the cells obtained were rinsed 2 times with PBS, fixed by treating with 4 w/v % paraformaldehide for 30 minutes at room temperature, treated by soaking in PBS containing 0.25 v/v % Triton X-100 for 30 minutes at 4° C., and then incubated in blocking buffer solution (PBS containing 3 w/v % BSA, 2 v/v % FBS, 1 v/v % normal goat blood serum, and 0.03 v/v % Triton X-100).
(§2) This was rinsed 2 times in PBS, moved into PBS containing 0.3 v/v % Cy3-labeled anti-mouse IgG antibody, and 0.3 v/v % Cy2-labeled anti-rabbit IgG antibody (second antibody) (both manufactured by Amersham Pharmacia), and incubated for 1 hour at room temperature. The fluorescent signals of the cells were observed by a confocal laser scanning microscope LSM5 Pascal (manufactured by Carl Zeiss Inc.). Untreated NRC (None), which was not treated with TPA, was labeled with antibodies in the same manner as a contrast, and the results of observing the cell luminescence signals by confocal laser microscope (LSM5 Pascal) are indicated in FIG. 3B.
(§3) Specifically, NRC prepared by the same method as described above in (1) of Experiment 1 was moved to a glass culture plate (35 mm diameter) coated with poly-L-lysin, and was cultured over night (5% CO2 concentration, 37° C.) in DMEM without blood serum (manufactured by Nacalai Tesque). Five samples of the culture cells in question were used and added respectively to (1) 100 μM (final concentration, same hereinafter) NE (containing 2 μM propranol), (2) 100 μM AngII, (3) 20 nM LIF, (4) 100 μM NE (containing 2 μM propranol)+400 nM GF109203X (concretely, treated for 30 minutes by adding GF109203X, and then NE was added), (5) 20 nM LIF+400 nM GF109203X (concretely, treated for 30 minutes by adding GF109203X, and then LIF was added), and these were cultured a further 38 hours (5% CO2 concentration, 37° C.) (approximately 1×10^3 cells).
(§4) After culturing, the cells were rinsed 2 times with PBS, fixed by treating with 4 w/v % paraformaldehide for 30 minutes at room temperature, treated by soaking in PBS containing 0.25 v/v % Triton X-100 for 30 minutes at 4° C., and then incubated in blocking buffer solution (PBS containing 3 w/v % BSA, 2 v/v % FBS, 1 v/v % normal goat blood serum, and 0.03 v/v % Triton X-100). […] This was rinsed 2 times in PBS, moved into PBS containing 0.3 v/v % Cy3-labeled anti-mouse IgG antibody, and 0.3 v/v % Cy2-labeled anti-rabbit IgG antibody (second antibody) (both manufactured by Amersham Pharmacia), and incubated for 1 hour at room temperature. The fluorescent signals of the cells were observed by a confocal laser scanning microscope LSM5 Pascal (manufactured by Carl Zeiss Ltd.).

[2] = test system: neonatal rat cardiomyocytes (NRC); assay: Immunofluorescence of α-actinin: sarcomere structures (cardiac hypertrophy state) in drug-treated NRC; type: cell-based
Experimental: as §1, §2, §3, §4

PKD1 [3] = assay: Immunoprecipitation kinase assay with Syntide-2 on PKD1 from drug-treated NRC; type: cell-based, rat; conditions: for phosphorylation activity of PKD1 (Syntide-2) relative to untreated NRC: NRC treated 20 minutes, 100 nM TPA, 100 μM NE (containing 2 μM propranol) or 20 nM LIF, n=9
Experimental: The ability of PKD1 to phosphorylate Syntide-2 (APLARTLSVAGLPGKK), which is a selective substance for PKD1, can be used as an index to assess PKD1 activity (Valverde, A. M., et al., Proc. Natl. Acad. Sci. USA, 91, 1994, p. 8572-8576).
Concretely, immunoprecipitation kinase assays using Syntide-2 as a substrate were conducted on the following NRC samples: NRC samples with cardiac hypertrophy induced by treating for 20 minutes respectively with (1) 100 nM TPA, (2) 100 μM NE, and (3) 20 nM LIF, and NRC samples treated for 20 minutes respectively with (4) 400 nM GF109203X (PKC inhibitor), (5) 20 nM TPA+400 nM GF109203X, (6) 100 μM NE+400 nM GF109203X, and (7) 20 nM LIF+400 nM GF109203X. The phosphorylation activity of PKD1 present in the various NRC samples was measured. In addition, as a control, the phosphorylation activity of PKD1 present in NRC that was not treated with anything (untreated NRC) was described and measured in the same way.
NRC prepared by the same method as described in (1) of Experiment 1 was cultured over night (5% CO2 concentration, 37° C.) in DMEM without blood serum (manufactured by Nacalai Tesque). To the cultured cells, (1) 100 nM TPA, (2) 100 μM NE (containing 2 μM propranol), (3) 20 nM LIF, (4) 400 nM GF109203X (PKC inhibitor), (5) 20 nM TPA+400 nM GF109203X, (6) 100 μM NE+400 nM GF109203X, and (7) 20 nM LIF+400 nM GF109203X were added respectively, and treated for 20 minutes. The cells obtained were treated with Lysis buffer solution A, and incubated for 60 minutes on ice together with anti-fully active PKD1 polyclonal antibody. This was treated with protein G Sepharose 4B, and protein bound to the resin (Protein G Sepharose 4B bound PKD1-anti-PKD1 antibody complex) was recovered. The PKD1 immunoprecipitate was rinsed 1 time in Lysis buffer solution A, and further rinsed 2 times with Lysis buffer solution A not containing NaF.
The PKD1 was eluted from PKD1 immunoprecipitate obtained by incubating in Lysis buffer solution A not containing NaF together with 100 μL of 0.5 mg/mL immunizing peptide. The immunizing peptide is an antigen peptide used in order to immunize test animals to create anti-fully active PKD1 polyconal antibody. When incubating this peptide with protein G Sepharose 4B bound PKD1-anti-PKD1 antibody complex, the aforementioned antigen peptide and the anti-PKD1 antibody bond, and as a result, PKD1 can be freed and obtained.
The eluted PKD1 (10 μL) was incubated for 5 minutes at 30° C. together with assay mixed solution (15 μL Tris/MgCl2 (100 mM Tris, 100 mM MgCl2), 5 μL ATP (800 μM), 0.2 μL ^32γ-ATP, and 40 μg Syntide-2). Next, the PKD1 phosphorylation activity was measured by liquid scintillation counter (n=9).

PKCε and PKD1 = assay: Immunoprecipitation assay and Western blotting for interaction of PKCε and PKD1 in NE-treated NRC; type: cell-based, rat; conditions: 100 μM NE (containing 2 μM propranol), versus NRC not treated with NE
Experimental: Primary NRC in culture prepared according to the method described in Experiment 1 (1) was treated with 100 μM NE (containing 2 μM propranol) in the same manner as in Experiment 3; the NE treated NRC in question was treated with Lysis buffer solution A; and 1 mL of cell extract (cell lysate) was obtained. […] of the cell extract was incubated for 60 minutes on ice together with anti-PKD1/2 monoclonal antibody; and this was then treated with protein G Sepharose 4B, and protein bound to the resin in question (anti-PKD1 antibody immunoprecipitate sample) was recovered. As indicated in experiment 1, no PKD2 was present in the NRC. Using anti-PKDε monoclonal antibody made in the same manner, anti-PKDε antibody immunoprecipitate sample was collected. As a control, 1 mL cell extract (cell lysate) of untreated NRC was obtained in the same way, and anti-PKDε antibody immunoprecipitate sample and anti-PKD1 antibody immunoprecipitate sample were prepared.
Next, Western blotting was conducted on the anti-PKCε antibody immunoprecipitate samples and the cell extract (cell lysate) obtained for the various NRC by using anti-PKD1/2 monoclonal antibody as the first antibody, and anti-mouse or anti-rabbit IgG bound with horseradish derived peroxidase (manufactured by Amersham Pharmacia) as the second antibody. […]

PKD1 [4] = assay: Western blotting of cytoplasm and cell membrane fractions of TPA-treated NRC; type: cell-based, rat; conditions: 100 nM TPA, 20 minutes, versus untreated
Experimental: The NRC prepared above was moved to non-serum DMEM (manufactured by Nacalai Tesque), and cultured overnight (5% CO2 concentration, 37° C.). Then, TPA was added to the culture to make a final concentration of 100 nM, and incubated for 20 minutes. Next, the cardiomyocytes were recovered and rinsed in PBS, subjected to bacteriolysis by treating with Lysis buffer solution (having the same composition as Lysis buffer solution A except that the Triton X-100 was 0.1%), centrifuged (15000 rpm, approximately 10 minutes), and fractioned into supernatant (cytoplasm fraction) and precipitate. The precipitate was further dissolved in Lysis buffer solution A. This was lightly separated by centrifuge, and the supernatant obtained was taken as the cell membrane fraction. As a control, NRC that was not treated with TPA was subjected to bacteriolysis, and the cytoplasm and cell membrane fractions were separated in the same manner as above (untreated substance). […]
Next, anti-mouse or anti-rabbit IgG bound with horseradish derived peroxidase (manufactured by Amersham Pharmacia) was used as the second antibody reagent, so that it is possible to observe the blotting results with chemical luminescence on X-ray film.

[5] = test system: fully active PKD1 (phosphorylated PKD1); assay: Immunofluorescence: intracellular distribution of fully active PKD1 in drug-treated NRC; type: cell-based, rat; conditions: cardiomyocytes in which EGF was allowed to act
[6] = 400 nM GF109203X for 30 minutes, then 100 μM NE (containing 2 μM propranol), 38 hours
[7] = 38 hours, 100 μM NE (containing 2 μM propranol), 100 μM AngII or 20 nM LIF

Molecule: CN(C)CCCn1cc(C2=C(c3c[nH]c4ccccc34)C(=O)NC2=O)c2ccccc21 [GF109203X]
effect on NE-induced full activation of PKD1 and movement to sarcomere Z-discs [1, 6]: no fully activated PKD1 (phosphorylation) and no movement to sarcomere Z-discs were observed
effect on LIF-induced cardiac hypertrophy ([2]; 400 nM GF109203X for 30 minutes, then 20 nM LIF, 38 hours): a cardiac hypertrophy state was revealed
effect on NE-induced cardiac hypertrophy [2, 6]: no cardiac hypertrophy is generated
intrinsic PKD1 activity with TPA plus PKC inhibitor (PKD1 [3]; NRC, 20 minutes, 20 nM TPA+400 nM GF109203X): suppressed to the same level as that of the negative control
intrinsic PKD1 activity with NE plus PKC inhibitor (PKD1 [3]; NRC, 20 minutes, 100 μM NE+400 nM GF109203X): suppressed to the same level as that of the negative control

phosphorylation activity of PKD1 (Syntide-2) relative to untreated NRC (PKD1 [3]): notably higher phosphorylation activity
Molecule: NC[C@H](O)c1ccc(O)c(O)c1 [NE, Norepinephrine]
full activation (phosphorylation) of PKD1 and movement to sarcomere Z-discs ([1]; 38 hours): PKD1 was fully activated (phosphorylated)
induction of cardiac hypertrophy (formation of sarcomere structures, visualization of Z-discs) [2, 7]: induced cardiac hypertrophy
formation of complex of PKCε and PKD1 (PKCε and PKD1): complex of PKCε and PKD1 were formed

Molecule: CCCCCCCCCCCCCC(=O)O[C@@H]1[C@@H](C)[C@@]2(O)[C@@H](C=C(CO)C[C@]3(O)C(=O)C(C)=C[C@@H]23)[C@H]2C(C)(C)[C@]12OC(C)=O [TPA, 12-0-tetradecanoylphorbol 13-acetate]
activation of PKD1 and localization of fully active PKD1 ([1]; 20 nM TPA, 18 hours): the fully activated PKD1 moves to the sarcomere Z-disc region
fully active PKD1 (phosphorylated PKD1) in cytoplasm and membrane fractions (PKD1 [4]): present in large amounts in the membrane fraction
induction of cardiac hypertrophy (formation of sarcomere structures, visualization of Z-discs) ([2]; 20 nM TPA, 18 hours): cardiac hypertrophy was induced
phosphorylation activity of PKD1 (Syntide-2) relative to untreated NRC (PKD1 [3]): notably higher phosphorylation activity

Molecule: Angiotensin II (DRVYIHPF; Angiotensin-2; UniProt P01019 25-32, looked up) [AngII, cardiac hypertrophy inducer]
full activation (phosphorylation) of PKD1 and movement to sarcomere Z-discs ([1]; 38 hours): PKD1 was fully activated (phosphorylated)
induction of cardiac hypertrophy (formation of sarcomere structures, visualization of Z-discs) [2, 7]: induced cardiac hypertrophy

Molecule: Epidermal growth factor [EGF]
full activation of PKD1 and movement to sarcomere Z-discs [5]: also observed

Molecule: Leukemia inhibitory factor [LIF]
full activation (phosphorylation) of PKD1 and movement to sarcomere Z-discs ([1]; 38 hours): no full activation (phosphorylation) of PKD1 and no movement of PKD1 to the vicinity of the sarcomere Z-discs
induction of cardiac hypertrophy (formation of sarcomere structures, visualization of Z-discs) [2, 7]: inducing cardiac hypertrophy
phosphorylation activity of PKD1 (Syntide-2) relative to untreated NRC (PKD1 [3]): hardly different from that of untreated NRC
